Experiment: Stability studies of dissolved products versus temperature
Format: physicochemical
Settings: in aqueous solution

In the case of `CCN1CCN(C(=O)N[C@@H](C(=O)N[C@@H]2C(=O)N3[C@@H]2SC(C)(C)[C@@H]3C(=O)O)c2ccccc2)C(=O)C1=O` [Piperacillin], the “Inflexion point of degradation of dissolved product with temperature” value is reported as “around 15 °C”.

With `C[C@]1(Cn2ccnn2)[C@H](C(=O)O)N2C(=O)C[C@H]2S1(=O)=O` [Tazobactam] the “Inflexion point of degradation of dissolved product with temperature” value was “around 15 °C”.

Reference: patent publication US20090186865A1, “Lyophilization Process” (SANDOZ AG, priority 2005, published 2009)
